Data published in ChEMBL document CHEMBL1156251, “Structure--activity relationships of polymyxin antibiotics” (J Med Chem, 2010).
≈ marks a conversion by molar mass, not a printed value.

What was measured:
Lipopolysaccharide (LPS) [1] = assay: Displacement of dansyl-PMB from LPS by isothermal titration calorimetry
Escherichia coli [2] = assay: Antimicrobial activity against Escherichia coli assessed as relative sensitizing activity; format: functional
Pseudomonas aeruginosa = assay: Antimicrobial activity against Pseudomonas aeruginosa; format: functional, organism-based
Escherichia coli [3] = assay: Antimicrobial activity against Escherichia coli; format: functional
Lipopolysaccharide (LPS) [4] = assay: Displacement of dansyl-PMB from LPS by fluorometric assay
Salmonella enterica = assay: Antimicrobial activity against Salmonella enterica; format: functional
Mus musculus = assay: Acute toxicity in iv dosed mouse; format: organism-based; details: in vivo

## CC(C)C[C@@H]1NC(=O)[C@@H](Cc2ccccc2)NC(=O)[C@H](CCN)NC(=O)[C@@H](NC(=O)[C@H](CCN)NC(=O)[C@@H](N)[C@@H](C)O)CCNC(=O)[C@H]([C@@H](C)O)NC(=O)[C@H](CCCCN)NC(=O)[C@H](CCCCN)NC1=O
Lipopolysaccharide (LPS) [1]; read-out: IC50
  IC50: 12 µM
Escherichia coli [2]
  Activity: 40%

## CC(C)C[C@@H]1NC(=O)[C@@H](Cc2ccccc2)NC(=O)[C@H](CC(=N)N)NC(=O)[C@@H](NC(=O)[C@H](CC(=N)N)NC(=O)[C@@H](N)[C@@H](C)O)CCNC(=O)[C@H]([C@@H](C)O)NC(=O)[C@H](CC(=N)N)NC(=O)[C@H](CC(=N)N)NC1=O
Lipopolysaccharide (LPS) [1]; read-out: IC50
  IC50: 3.8 µM
Escherichia coli [2]
  Activity: 25%

## CC(C)C[C@@H]1NC(=O)[C@@H](Cc2ccccc2)NC(=O)[C@H](CCN)NC(=O)[C@H](CCN)NC(=O)[C@H](NC(=O)[C@@H](N)[C@@H](C)O)CCNC(=O)[C@H]([C@@H](C)O)NC(=O)[C@H](CCN)NC(=O)[C@H](CCN)NC1=O
Lipopolysaccharide (LPS) [1]; read-out: IC50
  IC50: 8 µM
Escherichia coli [2]
  Activity: 7%

## CCNCC[C@H](NC(=O)CCCCC(C)CC)C(=O)N[C@H](C(=O)N[C@@H](CCN)C(=O)N[C@H]1CCNC(=O)[C@H]([C@@H](C)O)NC(=O)[C@H](CCN)NC(=O)[C@H](CCN)NC(=O)[C@H](CC(C)C)NC(=O)[C@@H](Cc2ccccc2)NC(=O)[C@H](CCN)NC1=O)[C@@H](C)O (some centres not stated)
Pseudomonas aeruginosa
  MIC: 0.146 µg/mL
Escherichia coli [3]
  MIC: 0.112 µg/mL
Lipopolysaccharide (LPS) [4]
  dansyl-PMB displacement concentration: 2.3 µg/mL

## CCC(C)CCCCC(=O)N[C@@H](CCNC(=O)C(N)CCCCNC(=O)OCc1ccccc1)C(=O)N[C@H](C(=O)N[C@@H](CCN)C(=O)N[C@H]1CCNC(=O)[C@H]([C@@H](C)O)NC(=O)[C@H](CCN)NC(=O)[C@H](CCN)NC(=O)[C@H](CC(C)C)NC(=O)[C@@H](Cc2ccccc2)NC(=O)[C@H](CCN)NC1=O)[C@@H](C)O (some centres not stated)
Pseudomonas aeruginosa
  MIC: 0.175 µg/mL
Escherichia coli [3]
  MIC: 0.206 µg/mL
Lipopolysaccharide (LPS) [4]
  dansyl-PMB displacement concentration: 1.12 µg/mL

## CCCNCC[C@H](NC(=O)CCCCC(C)CC)C(=O)N[C@H](C(=O)N[C@@H](CCN)C(=O)N[C@H]1CCNC(=O)[C@H]([C@@H](C)O)NC(=O)[C@H](CCN)NC(=O)[C@H](CCN)NC(=O)[C@H](CC(C)C)NC(=O)[C@@H](Cc2ccccc2)NC(=O)[C@H](CCN)NC1=O)[C@@H](C)O (some centres not stated)
Pseudomonas aeruginosa
  MIC: 0.206 µg/mL
Escherichia coli [3]
  MIC: 0.208 µg/mL
Lipopolysaccharide (LPS) [4]
  dansyl-PMB displacement concentration: 2.4 µg/mL

## CCC(C)CCCCC(=O)N[C@@H](CCNC(=O)C(N)CCCNC(=N)N)C(=O)N[C@H](C(=O)N[C@@H](CCN)C(=O)N[C@H]1CCNC(=O)[C@H]([C@@H](C)O)NC(=O)[C@H](CCN)NC(=O)[C@H](CCN)NC(=O)[C@H](CC(C)C)NC(=O)[C@@H](Cc2ccccc2)NC(=O)[C@H](CCN)NC1=O)[C@@H](C)O (some centres not stated)
Pseudomonas aeruginosa
  MIC: 0.207 µg/mL
Escherichia coli [3]
  MIC: 0.453 µg/mL
Lipopolysaccharide (LPS) [4]
  dansyl-PMB displacement concentration: 4.48 µg/mL

## CCC(C)CCCCC(=O)N[C@@H](CCNC(C)=O)C(=O)N[C@H](C(=O)N[C@@H](CCN)C(=O)N[C@H]1CCNC(=O)[C@H]([C@@H](C)O)NC(=O)[C@H](CCN)NC(=O)[C@H](CCN)NC(=O)[C@H](CC(C)C)NC(=O)[C@@H](Cc2ccccc2)NC(=O)[C@H](CCN)NC1=O)[C@@H](C)O (some centres not stated)
Pseudomonas aeruginosa
  MIC: 2.8 µg/mL
Escherichia coli [3]
  MIC: 1.3 µg/mL
Lipopolysaccharide (LPS) [4]
  dansyl-PMB displacement concentration: 2.8 µg/mL

## CCNCC[C@@H]1NC(=O)[C@H](CCN)NC(=O)[C@H](CC(C)C)NC(=O)[C@@H](Cc2ccccc2)NC(=O)[C@H](CCN)NC(=O)[C@@H](NC(=O)[C@H](CCN)NC(=O)[C@@H](NC(=O)[C@H](CCN)NC(=O)CCCCC(C)CC)[C@@H](C)O)CCNC(=O)[C@H]([C@@H](C)O)NC1=O (some centres not stated)
Pseudomonas aeruginosa
  MIC: 0.413 µg/mL
Escherichia coli [3]
  MIC: 0.492 µg/mL
Lipopolysaccharide (LPS) [4]
  dansyl-PMB displacement concentration: 9.5 µg/mL

## CCC(C)CCCCC(=O)N[C@@H](CCNC(=O)CN)C(=O)N[C@H](C(=O)N[C@@H](CCN)C(=O)N[C@H]1CCNC(=O)[C@H]([C@@H](C)O)NC(=O)[C@H](CCN)NC(=O)[C@H](CCN)NC(=O)[C@H](CC(C)C)NC(=O)[C@@H](Cc2ccccc2)NC(=O)[C@H](CCN)NC1=O)[C@@H](C)O (some centres not stated)
Pseudomonas aeruginosa
  MIC: 0.033 µg/mL
Escherichia coli [3]
  MIC: 0.028 µg/mL
Lipopolysaccharide (LPS) [4]
  dansyl-PMB displacement concentration: 8 µg/mL

## CCCNCC[C@@H]1NC(=O)[C@H](CCN)NC(=O)[C@H](CC(C)C)NC(=O)[C@@H](Cc2ccccc2)NC(=O)[C@H](CCN)NC(=O)[C@@H](NC(=O)[C@H](CCN)NC(=O)[C@@H](NC(=O)[C@H](CCN)NC(=O)CCCCC(C)CC)[C@@H](C)O)CCNC(=O)[C@H]([C@@H](C)O)NC1=O (some centres not stated)
Pseudomonas aeruginosa
  MIC: 0.763 µg/mL
Escherichia coli [3]
  MIC: 0.995 µg/mL
Lipopolysaccharide (LPS) [4]
  dansyl-PMB displacement concentration: 9.5 µg/mL

## CC(C)C[C@@H]1NC(=O)[C@@H](Cc2ccccc2)NC(=O)[C@H](CCN)NC(=O)[C@@H](NC(=O)[C@H](CCN)NC(=O)[C@@H](N)[C@@H](C)O)CCNC(=O)[C@H]([C@@H](C)O)NC(=O)[C@H](CCN)NC(=O)[C@H](CCN)NC1=O (stereo in doubt; 202) [POLYMYXIN B NONAPEPTIDE]
Lipopolysaccharide (LPS) [1]; read-out: IC50
  IC50: 8 µM
Escherichia coli [2]
  Activity: 5%

## CC(C)C[C@@H]1NC(=O)[C@@H](Cc2ccccc2)NC(=O)[C@H](CCN)NC(=O)[C@@H](NC(=O)[C@H](CCN)NC(=O)[C@@H](NC(=O)[C@H](CN)NC(=O)O)[C@@H](C)O)CCNC(=O)[C@H]([C@@H](C)O)NC(=O)[C@H](CCN)NC(=O)[C@H](CCN)NC1=O [DESFA-[DIAMINOPROPANOIC ACID1]POLYMYXIN B]
Pseudomonas aeruginosa
  MIC: 1 µM
Escherichia coli [3]
  MIC: 8 µM
Lipopolysaccharide (LPS) [1]
  IC50: 14 µM
Salmonella enterica
  MIC: 16 µM (≈ 17.5 µg/mL)
Mus musculus
  LD50: 23.5 µM/g

## CC(C)C[C@@H]1NC(=O)[C@@H](Cc2ccccc2)NC(=O)[C@H](CCN)NC(=O)[C@@H](NC(=O)[C@H](CCN)NC(=O)[C@@H](NC(=O)[C@H](Cc2c[nH]c3ccccc23)NC(=O)O)[C@@H](C)O)CCNC(=O)[C@H]([C@@H](C)O)NC(=O)[C@H](CCN)NC(=O)[C@H](CCN)NC1=O [DESFA-[TRP1]POLYMYXIN B]
Pseudomonas aeruginosa
  MIC: 8 µM
Escherichia coli [3]
  MIC: 8 µM
Lipopolysaccharide (LPS) [1]
  IC50: 20 µM
Salmonella enterica
  MIC: 8 µM (≈ 9.55 µg/mL)
Mus musculus
  LD50: 19 µM/g
